According to patent publication US20250161408A1, “PEPTIDIC INHIBITORS OF AMYLOID SELF- AND CROSS-ASSEMBLY” (TECHNISCHE UNIVERSITÄT MÜNCHEN, priority 2022, published 2025):
Entries after “also recorded” stand apart in the source; their conditions may differ. Non-standard residues stand in square brackets, D forms with d. Residues, ends and D or L forms follow the SMILES beside them. NMeF = CN[C@@H](Cc1ccccc1)C(=O)O; NMeV = CN[C@H](C(=O)O)C(C)C; Nle = CCCC[C@H](N)C(=O)O

How the values were obtained:
[1] = system: proteinase K; experiment: Proteinase K (PK) fibril digestion assay with dot blot; conditions: IAPP-related fibrils; 37° C.; dot blot with anti-fIAPP and anti-Aβ antibodies
Procedure: Solutions made as above but w/o PK were used as controls for 100% undigested fibrils. Solutions were incubated at 37° C. and at indicated time points aliquots were dotted onto nitrocellulose membranes and spots were quickly dried by air. Membranes were washed (TBS-T) and blocked (5% milk in TBS-T, overnight (10° C.)). […] Primary antibodies were combined with goat anti-mouse-POD (1:1000) or donkey anti-rabbit-POD (1:5000); detection was as under “Cross-linking, NuPAGE and WB”.

[2] = target: T1, Aβ42 (Homo sapiens, UniProt P05067); experiment: Fluorescence spectroscopic titration of FITC-Aβ42 with ACMs; conditions: read-out: app. KD (±SD) of ACM/Aβ42 interactions; N-terminal FITC-labelled Aβ42 5 nM, pH 7.4; means from three binding curves
T1 construct: the 40(42)-residue peptide Aβ40(42); made in house; host or cells: chemical synthesis (Fmoc-SPPS), monomer isolated by SEC
T1 sequence (P05067 672-713): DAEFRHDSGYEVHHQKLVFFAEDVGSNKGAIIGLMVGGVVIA
Procedure: Fluorescence spectroscopic studies were performed with a Jasco FP-6500 fluorescence spectrophotometer. Briefly, excitation was at 492 nm and spectra were measured between 500 and 600 nm. All titrations were performed in freshly made solutions of synthetic N-terminal fluorescently labeled peptide (5 nM) and various amounts of unlabeled peptide in 10 mM sodium phosphate buffer, pH 7.4 (1% HFIP) within 2-5 min following solution preparation. Under these experimental conditions, freshly made solutions of Fluos-IAPP and FITC-Aβ42 (5 nM) consist mostly of monomers and the same was found for Fluos-ACMs (5 nM) (FIG. 13e and data not shown). Apparent binding affinities (app. KDs) were estimated by using 1/1 binding models. However, due to the high self-assembly propensities of involved peptides more complex models might also apply. Determined app. KDs are means (±SD) from three binding curves derived from three independent titration assays.

[3] = target: T1, Aβ42; experiment: ThT binding assay of Aβ42 fibrillogenesis (self-assembly, seeding, cross-seeding); type: biochemical
Procedure: Aβ42 fibrillogenesis-related studies. […] Peptide incubations were performed in the presence of ThT in 96-well black MTPs (FluoroNunc, Thermo Fisher Scientific). […] Values of seeds or buffer alone were subtracted from the data in self-/cross-seeding assays; all other data shown are raw data except for data in FIG. 27b which were normalized).
Incubations (37° C.) and determination of ThT fluorescence were performed as for all other Aβ42-related studies.

[4] = system: cultured murine BV2 microglia; experiment: Phagocytosis of Aβ42 species with or without ACM; type: cell-based, mouse; conditions: 1/1, co-incubation 2 h
Procedure: Briefly, BV2 cells were maintained in GlutaMAX-supplemented RPMI1640 medium containing 10% FBS and 1% penicillin/streptomycin on poly-L-ornithine-coated flasks. For the phagocytosis assay, BV2 cells were seeded into 24-well plates containing coverslips in serum-free RPMI1640-GlutaMAX and further incubated for 24 h (5% CO2, 37° C.) to reach 10000 cells/well. Primary BMDMs were obtained from bone-marrow monocytes isolated from wildtype C57BL/6 mice, plated in 24-well plates at a density of 10000cells/well, and differentiated with L929 cell-conditioned medium (RPMI1640, 10% FBS, 1% penicillin/streptomycin) for 7 days. Thereafter, cells were incubated with aged peptide solutions at 37° C. for 6 h. […]
Following incubation of the cells with the peptides, supernatants were removed and cells on the coverslips were washed 5 times with ice-cold 1×PBS, fixed with 4% paraformaldehyde, washed with 1×PBS, permeabilized with 0.2% Triton-X 100, and rinsed three times with cold 1×PBS. […] Images were acquired using a Leica DMi8 fluorescence microscope. The percentage of cells that had taken up peptides was calculated by dividing the number of BV2 cells or BMDMs that phagocytosed TAMRA-labeled peptide by the total cell count, multiplied by 100. Significance was analyzed by unpaired student's t-test.

[5] = target: T1, Aβ42; experiment: cell-based; conditions: read-out: IC50 (±SD) of inhibitory effects of ACMs on Aβ42-mediated cell damage
Procedure: Following incubation with the cells for ˜20 h (37° C., humidified atmosphere, 5% CO2), cell damage was assessed by measuring cellular MTT reduction.
Solutions were aged for 1.5 h (37° C., shaking 500 rpm). Aliquots were diluted with cell medium, incubated with PC12 cells at the indicated final concentrations for ˜20 h and cellular MTT reduction was measured as above.

[6] = target: T2, IAPP (Homo sapiens, UniProt P10997); experiment: MTT reduction assay of IAPP-mediated cell damage in RIN5fm cells; type: cell-based
T2 construct: made in house; host or cells: chemical synthesis (Fmoc-SPPS), air-oxidised, RP-HPLC purified
T2 sequence (P10997 34-70 limits assumed): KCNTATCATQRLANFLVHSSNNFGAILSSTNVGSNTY
Procedure: Briefly, cells were cultivated and platted in 96-well plates. Aliquots of solutions used for the ThT binding assays (see “ThT binding assays”) were diluted with cell medium at the indicated incubation time points (24 h or 7 days) and added to the cells at the indicated final concentrations. Following incubation with the cells for ˜20 h (37° C., humidified atmosphere, 5% CO2) cell damage was assessed by measuring cellular MTI reduction. IC50 values were determined.

Compound: CC[C@H](C)[C@H](NC(=O)[C@H](C)NC(=O)CNC(=O)[C@H](Cc1ccccc1)NC(=O)[C@H](CC(N)=O)NC(=O)[C@H](CC(N)=O)NC(=O)[C@H](CO)NC(=O)[C@H](CO)NC(=O)[C@H](Cc1c[nH]cn1)NC(=O)[C@@H](NC(=O)[C@H](CC(C)C)NC(=O)[C@H](Cc1ccccc1)NC(=O)[C@H](CC(N)=O)NC(=O)[C@H](C)NC(=O)[C@H](CC(C)C)NC(=O)[C@H](CCCNC(=N)N)NC(=O)[C@H](CCC(N)=O)NC(=O)[C@@H](NC(=O)[C@H](C)NC(=O)[C@@H]1CSSC[C@H](NC(=O)[C@@H](N)CCCCN)C(=O)N[C@@H](CC(N)=O)C(=O)N[C@@H]([C@@H](C)O)C(=O)N[C@@H](C)C(=O)N[C@@H]([C@@H](C)O)C(=O)N1)[C@@H](C)O)C(C)C)C(=O)N[C@@H](CC(C)C)C(=O)N[C@@H](CO)C(=O)N[C@@H](CO)C(=O)N[C@H](C(=O)N[C@@H](CC(N)=O)C(=O)N[C@H](C(=O)NCC(=O)N[C@@H](CO)C(=O)N[C@@H](CC(N)=O)C(=O)N[C@H](C(=O)N[C@@H](Cc1ccc(O)cc1)C(N)=O)[C@@H](C)O)C(C)C)[C@@H](C)O [IAPP]
- Time to degradation by proteinase K [1]: at least 30 h

Compound: CCCC[C@H](NC(=O)[C@H](CC(=O)O)NC(=O)[C@H](CCC(=O)O)NC(=O)[C@H](C)NC(=O)[C@H](Cc1ccccc1)N(C)C(=O)[C@H](Cc1ccccc1)NC(=O)[C@H](C(C)C)N(C)C(=O)[C@H](CC(C)C)NC(=O)[C@H](CCCCN)NC(=O)[C@@H](N)CCC(N)=O)C(=O)N[C@@H](CCCC)C(=O)N[C@@H](CCCC)C(=O)N[C@@H](CC(N)=O)C(=O)N[C@@H](CCCCN)C(=O)NCC(=O)N[C@@H](C)C(=O)N[C@H](C(=O)N[C@H](C(=O)NCC(=O)N[C@@H](CC(C)C)C(=O)N[C@@H](CCCC)C(=O)N[C@H](C(=O)NCC(=O)NCC(=O)N[C@H](C(=O)N[C@H](C(=O)O)C(C)C)C(C)C)C(C)C)[C@@H](C)CC)[C@@H](C)CC [Nle3-VF] (H-QKL[NMeV]F[NMeF]AED[Nle][Nle][Nle]NKGAIIGL[Nle]VGGVV-OH)
- Kd [2]: 14.5 ± 8 nM
- Effect of addition to preformed toxic Aβ42 oligomers on fibrillogenesis (ThT binding) ([3]; 2 h-aged Aβ42, 1/1): delay of fibrillogenesis
- Effect of addition to already nucleated Aβ42 fibrillogenesis (ThT binding) ([3]; Aβ42 5 μM, post-nucleation addition): does not affect amounts of already formed ThT-positive fibrils
- Effect of addition to TAMRA-oAβ42 on Aβ42 phagocytosis [4]: increased Aβ42 phagocytosis
- IC50 [5]: 367 nM
- Effect of addition to preformed fIAPP on fIAPP cytotoxicity (MTT reduction) ([6]; RIN5fm cells, ACM 33 μM added to fIAPP […], 1 day, fIAPP 500 nM): does not affect fIAPP cytotoxicity
- Effect on formation of cytotoxic IAPP assemblies (MTT reduction) ([6]; RIN5fm cells, aged (24 h or 7 days) IAPP/peptide 1/2 solutions): fully suppressed; also recorded: suppress formation of toxic IAPP assemblies
- IC50 ([6]; read-out: IC50 (±SD) of inhibitory effects of ACMs on IAPP-mediated cell damage): 65 nM
